We go through two molecules from patent US6071944A, “Method of treatment of pigmented cancer cells utilizing photodynamic therapy” (Bowling Green State University, priority 1997, dated 2000).

“Also recorded” adds a separate entry of the source.

Details of data set [1]: species or system C57 mice. The conditions noted are these: mouse, in vivo, iv, 1 mg/kg, 3 h. As for the experimental part: (§1) SiNc incorporated into DPPC liposomes was injected at a dose of 1 mg/kg body weight into the caudal vein of C57 mice bearing the B16 pigmented melanoma. Three groups of mice (three mice per each time point) were used: (a) unirradiated control mice; (b) mice injected immediately after irradiation with the Nd: YAG laser (1064 nm, one pulse, 650 mJ); (c) mice injected at 24 h or 48 h before irradiation under the same conditions indicated for group (b). In all cases, at 3, 24 and 48 h after injection of isoBO--SiNc (groups a and b) and immediately after irradiation (group c), the mice were sacrificed by prolonged exposure to ether vapor. The blood was rapidly taken, centrifuged at 3000 rpm for 10 min. to remove the erythrocytes, and the serum was analyzed for its isoBO--SiNc content by a spectrophotofluorimetric procedure (4) using 690 nm as the excitation wavelength. The liver, tumor and peritumoral skin (namely an area with a 0.5 cm width surrounding the tumor) were excised and their isoBO--SiNc content was determined spectrophotofluorimetrically as previously described (4,5).
The pharmacokinetic behavior of systematically injected isoBO--SiNc in unirradiated and 1064 nm-irradiated (650 mJ, one pulse) C57 mice is shown in Table 1.
C = control mice (mice not irradiated) […]
Values ± SD; three mice were independently analyzed each time, with th
exception of I where six mice were analyzed.

A further data set deals with B16 pigmented melanoma. Put plainly: Photodynamic therapy and high peak power irradiation studies: tumour regrowth of B16 pigmented melanoma. Type of data set: in vivo, C57 mice. How it is done: Female C57/BL6 and BALB/C mice (18-20 g body weight) obtained from Harlan Spraque Dawley, Inc. (Indianapolis, Ind.) were used as experimental models. B16 pigmented melanoma (the B16 cell line was obtained from American Type Culture Collection) was subcutaneously transplanted into the upper flank by injecting […] of a sterile cell suspension in PBS. The cell line was cultured in Dulbecco's modified minimal essential medium supplemented with 10% fetal calf serum. The cell culture was maintained at 37° C. in a humidified atmosphere of 5% CO2 in air. All of our experiments were performed at 5-7 days after injection of B16 melanoma cells, when the tumor volume was in the range of 0.02-0.04 cm^3 with an external diameter of 0.4-0.6 cm and a depth of 0.15-0.2 cm.
When the tumor diameter was in the range of 0.4-0.6 cm, groups of 7-8 B16 melanoma bearing mice were irradiated with 1064 nm light from the Nd: YAG laser at 500 or 650 mJ per pulse (HPP). In one group of mice at 24 h after isoBO--SiNc injection (1 mg/kg) the tumor area was exposed to 774 nm light from a dye laser which was operated at a fluence rate of 300 mW/cm^2 for a total light fluence of 520 J/cm^2. This PDT treatment was performed, in other two groups, also before or after the tumors had been exposed to 1064 nm light from the Nd: YAG (650 mJ). Another group of 8 mice was treated with PDT (isoBO--SiNc 1 mg/kg, 300 mW/cm^2, 520 J/cm^2) preceded by HPP (1064 nm, 650 mJ) and retreated in the same way 10 days later, when the tumors were regrowing.
In a parallel set of experiments, a sequential treatment involving HPP and PDT (with the same irradiation conditions mentioned above) was followed by an immediate further irradiation at 550 mW/cm^2 and 200 j/cm^2 from the same 774 nm light. For each group the effectiveness of the treatment was evaluated by comparing the rate of tumor growth of the irradiated mice with that observed for control mice transplanted simultaneously with the phototreated mice but not exposed to light and not injected with isoBO--SiNc. The tumor size was measured daily by means of a caliper. Individual tumor volumes (V) were calculated by assuming a hemiellipsoidal structure for the tumor nodule and measuring the two perpendicular axes (a and b) and the height (c). Application of the relationship V 2/3(a/2×b/2×c) provided the tumor volume. The time to reach a defined tumor volume was calculated for the individual tumors.
Special attention was paid to the recoveries obtained at 24 h and 48 h after injection since these time intervals correspond with the maximum isoBO--SiNc accumulation in a variety of transplanted tumors and are generally used for PDT. The data obtained for control mice were in good agreement with those previously found in our laboratory. […] On the basis of the above described findings, a PDT experiment (776 nm; 300 mW/cm^2 -520 J/cm^2) was performed at 24 h post injection, immediately after HPP irradiation with a single 650 mJ pulse of 1064 nm light.
HPP: High Peak Power irradiation from Nd: YAG laser, 1064 nm, […] per
PDT: Photodynamic Therapy from dye laser, 774 nm, 300 mW/cm^2, 520
PTT: Photothermal Therapy from dye laser, 774 nm, 550 mW/cm^2, 200
*Difference between the growth time for treated and control mice. The
growth time is the time interval for the tumour to grow to a volume of 1
cm^3 from the size at the time of irradiation (0.03-0.04 cm^3).
The growth time of control mice was 11 days.

Data set [2] is described as follows: Effect of 1064 nm light on the photosensitizer (recovery, group II). Type of data set: in vivo, C57 mice. The conditions noted are these: injected 24 and 48 h before irradiation. How it is done:
as §1
II = mice injected at 24 and 48 h before irradiation (1064 nm, 650 mJ, 1
Special attention was paid to the recoveries obtained at 24 h and 48 h after injection since these time intervals correspond with the maximum isoBO--SiNc accumulation in a variety of transplanted tumors and are generally used for PDT. […]

A further data set relates to Amelanotic melanoma. The following applies: cited from earlier work.
The subject of the next data set is pigmented melanoma. The conditions noted are these: very virulent pigmented melanoma; cited from earlier work.

As for `CCCCCCCCCCCCCCCCCC[Si]([O-])(CC(C)C)CC(C)C.CCCCCCCCCCCCCCCCCC[Si]([O-])(CC(C)C)CC(C)C.[Si+4].c1ccc2cc3c(cc2c1)-c1nc2nc(nc4[n-]c(nc5[n-]c(nc-3n1)c1cc3ccccc3cc51)c1cc3ccccc3cc41)-c1cc3ccccc3cc1-2` [isoBO-SiNc, Bis(di-isobutyloctadecylsiloxy)-2,3-naphthalocyanato silicon], the “Recovery of isoBO-SiNc from selected tissues: peritumoural skin” value in data set [1] was 0.44 ± 0.1 μg of drug per g. Also, the “delay of tumor regrowth” value stood at 11 days in the data set with B16 pigmented melanoma (1 mg/kg, PDT 300 mW/cm^2, 520 J/cm^2, 776 nm diode laser immediately after 1064 nm irradiation) and 4 days in the data set with B16 pigmented melanoma (PDT under identical conditions without the pre-irradiation). For the same molecule, the “Mice tumour free time” value in the data set with B16 pigmented melanoma (HPP + PDT) was found to be 9 days; with B16 pigmented melanoma (HPP + PDT + HPP + PDT (retreated 10 days later)), 21 days; with B16 pigmented melanoma (HPP + PDT + PTT (774 nm, 550 mW/cm^2, 200 J/cm^2)), 22 days; in the data set with B16 pigmented melanoma (PDT (774 nm, 300 mW/cm^2, 520 J/cm^2), 1 mg/kg), 2 days; in the data set with B16 pigmented melanoma (PDT + HPP (1064 nm Nd:YAG, 650 mJ per pulse)), 2 days. Moreover, the Regrowth delay in the data set with B16 pigmented melanoma (HPP + PDT + HPP + PDT (retreated 10 days later), growth time to 1 cm^3 vs control mice) turned out to be 27 days; with B16 pigmented melanoma (HPP + PDT + PTT, growth time to 1 cm^3 vs control mice), 34.6 days; in the data set with B16 pigmented melanoma (HPP + PDT, growth time to 1 cm^3 vs control mice) it was 16.4 days; with B16 pigmented melanoma (PDT + HPP, growth time to 1 cm^3 vs control mice), 7 days; with B16 pigmented melanoma (PDT, difference in growth time to 1 cm^3 between treated and control mice), 6.3 days. Also, in the data set with B16 pigmented melanoma (HPP irradiation followed by PDT), the “tumor response to combined HPP and PDT” value is “remarkable retardation in tumor growth rate; also recorded: significant tumor response which is markedly larger than that obtained with either treatment alone”. Further, the “animals essentially tumor-free post-PDT” value in the data set with B16 pigmented melanoma (PDT (776 nm; 300 mW/cm^2, 520 J/cm^2) 24 h post injection, immediately after HPP 650 mJ pulse, FIG. 3) is around 11 days. Further, the “effect of 1064 nm irradiation on recovery / integrity of the photosensitizer” value in data set [2] was “no appreciable effect on the recovery; also recorded: not affected by 1064 nm light”.

Regarding Photofrin, the “response of amelanotic melanoma to Photofrin-PDT” value in the data set with Amelanotic melanoma was “successfully treated”. Besides, the “response of pigmented melanoma to PDT” value with pigmented melanoma is reported as “poorly responsive”.
